ChEMBL document CHEMBL1201862, “PubChem BioAssay data set” (2004)
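Interpolation was linear, between the two tested concentrations surrounding the appropriate level; five concentrations were tested over 48 hours in 96-well plates. At the GI50, growth is halved.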 Active and inactive are the calls of the source. No stated cut-off is given here; in the data, active = GI50 up to about 1.1 µM and inactive = higher. Where a SMILES comes first, the peptide text is derived from it. [ ]: non-standard residue; d: D form. The star is where a group is joined. ξ: configuration not given here. ξPhe(4-NO2) = NC(Cc1ccc([N+](=O)[O-])cc1)C(=O)O; Boc = CC(C)(C)OC(=O)*; OBn = c1ccc(CO*)cc1

Columns and labels:
Experiment in all cases: growth of human tumour cells (NCI), 48 h
Hs-578T = system: Hs-578T
MDA-N = system: MDA-N
NCI-H522 = system: NCI-H522
MOLT-4 = system: MOLT-4
RXF 393 = system: RXF 393
SW-620 = system: SW-620
OVCAR-8 = system: OVCAR-8
SF-539 = system: SF-539
U-251 = system: U-251
HT-29 = system: HT-29
KM12 = system: KM12
NCI-H460 = system: NCI-H460
A498 = system: A498
UO-31 = system: UO-31
PC-3 = system: PC-3
HCT-116 = system: HCT-116
NCI-H226 = system: NCI-H226
SN12C = system: SN12C
EKVX = system: EKVX
SK-OV-3 = system: SK-OV-3

Row | SMILES | GI50 (Hs-578T) | GI50 (MDA-N) | GI50 (NCI-H522) | GI50 (MOLT-4) | GI50 (RXF 393) | GI50 (SW-620) | GI50 (OVCAR-8) | GI50 (SF-539) | GI50 (U-251) | GI50 (HT-29) | GI50 (KM12) | GI50 (NCI-H460) | GI50 (A498) | GI50 (UO-31) | GI50 (PC-3) | GI50 (HCT-116) | GI50 (NCI-H226) | GI50 (SN12C) | GI50 (EKVX) | GI50 (SK-OV-3)
1 | CCOC(=O)NC(N(C)C(C(C)C)P(=O)(OCC)OCC)(C(F)(F)F)C(F)(F)F (configuration not stated) | > 100 µM (inactive) | > 100 µM (inactive) | > 100 µM (inactive) | > 100 µM (inactive) | > 100 µM (inactive) | 4.68 µM (inactive) | > 100 µM (inactive) | > 100 µM (inactive) | > 100 µM (inactive) | > 100 µM (inactive) | > 100 µM (inactive) | > 100 µM (inactive) | > 100 µM (inactive) | > 100 µM (inactive) | > 100 µM (inactive) | > 100 µM (inactive) | > 100 µM (inactive) | > 100 µM (inactive) | > 100 µM (inactive) | –
2 | COc1ccc(-c2c3c(n(C4OC(CO)C(O)C(O)C4O)c(=S)c2C#N)CC(C)(C)CC3=O)cc1 (configuration not stated) | > 100 µM (inactive) | > 100 µM (inactive) | > 100 µM (inactive) | 79.4 µM (inactive) | > 100 µM (inactive) | – | > 100 µM (inactive) | > 100 µM (inactive) | > 100 µM (inactive) | > 100 µM (inactive) | > 100 µM (inactive) | > 100 µM (inactive) | > 100 µM (inactive) | > 100 µM (inactive) | > 100 µM (inactive) | 73.3 µM (inactive) | 96.6 µM (inactive) | > 100 µM (inactive) | – | –
3 | CSc1c(C#N)c(=O)[nH]c2[nH]nc(C)c12 | > 100 µM (inactive) | > 100 µM (inactive) | – | > 100 µM (inactive) | > 100 µM (inactive) | > 100 µM (inactive) | > 100 µM (inactive) | > 100 µM (inactive) | > 100 µM (inactive) | > 100 µM (inactive) | > 100 µM (inactive) | > 100 µM (inactive) | > 100 µM (inactive) | > 100 µM (inactive) | > 100 µM (inactive) | 33.3 µM (inactive) | > 100 µM (inactive) | > 100 µM (inactive) | > 100 µM (inactive) | > 100 µM (inactive)
4 | N#CC1=C(N)OC(c2ccc([N+](=O)[O-])cc2)C1(C#N)C#N (configuration not stated) | 25.9 µM (inactive) | 9.18 µM (inactive) | 6.62 µM (inactive) | 33.7 µM (inactive) | 7.23 µM (inactive) | 13.2 µM (inactive) | 17.5 µM (inactive) | 15.1 µM (inactive) | 25.4 µM (inactive) | 9.14 µM (inactive) | > 33.7 µM (inactive) | – | 14.4 µM (inactive) | 6.27 µM (inactive) | 17.1 µM (inactive) | 9.77 µM (inactive) | 18.3 µM (inactive) | 14.5 µM (inactive) | 14.2 µM (inactive) | 26.2 µM (inactive)
5 | Cc1nc2ccc([N+](=O)[O-])cc2c(=O)n1C(=S)Nc1cccc(Cl)c1 | 21.5 µM (inactive) | 16.4 µM (inactive) | – | 17.9 µM (inactive) | 13.9 µM (inactive) | 22 µM (inactive) | – | 19.5 µM (inactive) | 18.5 µM (inactive) | 17.7 µM (inactive) | 12.9 µM (inactive) | 14.9 µM (inactive) | 9.4 µM (inactive) | 5.24 µM (inactive) | 15.2 µM (inactive) | 16 µM (inactive) | 14.9 µM (inactive) | 20 µM (inactive) | 18.7 µM (inactive) | 22.5 µM (inactive)
6 | Cc1ccc(Nc2cn(COCc3ccccc3)c(=O)[nH]c2=O)cc1 | 24.9 µM (inactive) | > 100 µM (inactive) | – | > 100 µM (inactive) | > 100 µM (inactive) | > 100 µM (inactive) | – | – | > 100 µM (inactive) | > 100 µM (inactive) | > 100 µM (inactive) | > 100 µM (inactive) | > 100 µM (inactive) | > 100 µM (inactive) | > 100 µM (inactive) | > 100 µM (inactive) | > 100 µM (inactive) | > 100 µM (inactive) | > 100 µM (inactive) | –
7 | Nc1nc(Cl)c2nnn(CC3CCC(CO)C3)c2n1 (configuration not stated) | > 100 µM (inactive) | > 100 µM (inactive) | – | – | > 100 µM (inactive) | > 100 µM (inactive) | – | > 100 µM (inactive) | > 100 µM (inactive) | – | > 100 µM (inactive) | – | > 100 µM (inactive) | > 100 µM (inactive) | > 100 µM (inactive) | > 100 µM (inactive) | > 100 µM (inactive) | > 100 µM (inactive) | > 100 µM (inactive) | > 100 µM (inactive)
8 | CC(C)(C)OC(=O)NC(Cc1ccc([N+](=O)[O-])cc1)C(=O)NCC(=O)OCc1ccccc1 (configuration not stated) (Boc-[ξPhe(4-NO2)]-Gly-OBn) | 22.3 µM (inactive) | 19.1 µM (inactive) | 20.2 µM (inactive) | 15 µM (inactive) | 22.2 µM (inactive) | 29.6 µM (inactive) | 22.2 µM (inactive) | – | 20.7 µM (inactive) | 25.5 µM (inactive) | 31.4 µM (inactive) | 21.9 µM (inactive) | 38.6 µM (inactive) | 23.9 µM (inactive) | 17.2 µM (inactive) | 26.5 µM (inactive) | 26.7 µM (inactive) | 20.7 µM (inactive) | > 100 µM (inactive) | 24.6 µM (inactive)
9 | Br/C(=N\N=c1/nn[nH][nH]1)c1ccncc1 | > 100 µM (inactive) | > 100 µM (inactive) | > 100 µM (inactive) | > 100 µM (inactive) | > 100 µM (inactive) | > 100 µM (inactive) | > 100 µM (inactive) | > 100 µM (inactive) | > 100 µM (inactive) | > 100 µM (inactive) | > 100 µM (inactive) | > 100 µM (inactive) | > 100 µM (inactive) | – | > 100 µM (inactive) | > 100 µM (inactive) | > 100 µM (inactive) | > 100 µM (inactive) | > 100 µM (inactive) | > 100 µM (inactive)
10 | CCOC(=O)c1c(SCCN2CCCC2)n(-c2ccccc2)c(=S)n(-c2ccccc2)c1=O | 4.7 µM (inactive) | 2.36 µM (inactive) | 1.77 µM (inactive) | 1.65 µM (inactive) | 1.74 µM (inactive) | 2.6 µM (inactive) | 1.95 µM (inactive) | 2.38 µM (inactive) | 6.14 µM (inactive) | 4.89 µM (inactive) | 15.8 µM (inactive) | 5.81 µM (inactive) | 10.4 µM (inactive) | – | 1.66 µM (inactive) | 4.27 µM (inactive) | 16.8 µM (inactive) | 1.71 µM (inactive) | 13.9 µM (inactive) | 18.1 µM (inactive)
11 | Cc1ccc(Cl)c2c(=O)c3ccc(N)cc3sc12 | 10.4 µM (inactive) | 30.1 µM (inactive) | – | 11.7 µM (inactive) | 22.1 µM (inactive) | – | 13.2 µM (inactive) | 16 µM (inactive) | – | 17.5 µM (inactive) | 14.7 µM (inactive) | 31.9 µM (inactive) | 17 µM (inactive) | 13.9 µM (inactive) | 25 µM (inactive) | 16.9 µM (inactive) | 17.3 µM (inactive) | 15.7 µM (inactive) | 5.55 µM (inactive) | –
12 | Nc1ccc2nc(N)n[n+]([O-])c2c1 | > 100 µM (inactive) | > 100 µM (inactive) | > 100 µM (inactive) | > 100 µM (inactive) | – | > 100 µM (inactive) | > 100 µM (inactive) | > 100 µM (inactive) | > 100 µM (inactive) | > 100 µM (inactive) | > 100 µM (inactive) | > 100 µM (inactive) | > 100 µM (inactive) | > 100 µM (inactive) | > 100 µM (inactive) | > 100 µM (inactive) | > 100 µM (inactive) | > 100 µM (inactive) | > 100 µM (inactive) | > 100 µM (inactive)
13 | O=C1c2ccccc2C(=O)c2c1ccc1c2OCO1 | > 100 µM (inactive) | > 100 µM (inactive) | > 100 µM (inactive) | > 100 µM (inactive) | > 100 µM (inactive) | > 100 µM (inactive) | > 100 µM (inactive) | > 100 µM (inactive) | > 100 µM (inactive) | > 100 µM (inactive) | > 100 µM (inactive) | – | > 100 µM (inactive) | > 100 µM (inactive) | > 100 µM (inactive) | > 100 µM (inactive) | 58.7 µM (inactive) | > 100 µM (inactive) | > 100 µM (inactive) | > 100 µM (inactive)
14 | O=C(CCl)Nc1cc(Cl)c(Cl)cc1Cl | 3.4 µM (inactive) | 1.69 µM (inactive) | 0.505 µM (active) | > 10 µM (inactive) | 2.65 µM (inactive) | 2.58 µM (inactive) | 1.73 µM (inactive) | 1.67 µM (inactive) | 2.01 µM (inactive) | 2 µM (inactive) | 0.307 µM (active) | 1.73 µM (inactive) | 5.15 µM (inactive) | – | 1.76 µM (inactive) | 1.59 µM (inactive) | 1.01 µM (active) | 1.52 µM (inactive) | 2.54 µM (inactive) | > 10 µM (inactive)
15 | COC1/C=C\OC2(C)Oc3c(C)c(O)c4c(O)c(c(/C=N\OCCCc5ccccc5)c(O)c4c3C2=O)NC(=O)/C(C)=C\C=C/C(C)C(O)C(C)C(O)C(C)C(OC(C)=O)C1C (configuration not stated) | 6.31 µM (inactive) | 3.44 µM (inactive) | 3.54 µM (inactive) | 3.46 µM (inactive) | 2.9 µM (inactive) | 4.36 µM (inactive) | 4.9 µM (inactive) | 2.93 µM (inactive) | 4.36 µM (inactive) | 3.59 µM (inactive) | 4.47 µM (inactive) | 3.49 µM (inactive) | 6.93 µM (inactive) | – | 3.18 µM (inactive) | 2.3 µM (inactive) | 2.13 µM (inactive) | 1.81 µM (inactive) | 4.52 µM (inactive) | 4.42 µM (inactive)
